{"source": "the supplement of paper PMC11451515", "tested_on": "NOMO1", "experiment": "cell viability relative to DMSO control; higher = less cytotoxic", "conditions": "48 h", "in_short": "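Viability was expressed as a per-plate percentage of DMSO wells, with cell-free wells as background. Leukemia cells (NOMO1 or SEM at 500 cells/well, P12-Ichikawa at 1000 cells/well) were adapted for at least four passages in each medium and seeded in 1536-well plates (5 μl). Library compounds in DMSO were pin-dosed over an 11-point threefold series from 47 μM to 0.79 nM, and CellTiter-Glo One luminescence was read after 48 h at 37°C.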", "key": {"[1]": {"conditions": "HPLM + 10% dialyzed FBS, 0.000781 µM"}, "[2]": {"conditions": "HPLM + 10% dialyzed FBS, 0.00234 µM"}, "[3]": {"conditions": "HPLM + 10% dialyzed FBS, 0.00702 µM"}, "[4]": {"conditions": "HPLM + 10% dialyzed FBS, 0.0211 µM"}, "[5]": {"conditions": "HPLM + 10% dialyzed FBS, 0.0632 µM"}, "[6]": {"conditions": "HPLM + 10% dialyzed FBS, 0.19 µM"}, "[7]": {"conditions": "HPLM + 10% dialyzed FBS, 0.569 µM"}, "[8]": {"conditions": "HPLM + 10% dialyzed FBS, 1.71 µM"}, "[9]": {"conditions": "HPLM + 10% dialyzed FBS, 5.12 µM"}, "[10]": {"conditions": "HPLM + 10% dialyzed FBS, 15.4 µM"}, "[11]": {"conditions": "HPLM + 10% dialyzed FBS, 46.1 µM"}, "[12]": {"conditions": "RPMI 5 mM glucose + 10% FBS, 0.000781 µM"}, "[13]": {"conditions": "RPMI 5 mM glucose + 10% FBS, 0.00234 µM"}, "[14]": {"conditions": "RPMI 5 mM glucose + 10% FBS, 0.00702 µM"}, "[15]": {"conditions": "RPMI 5 mM glucose + 10% FBS, 0.0211 µM"}, "[16]": {"conditions": "RPMI 5 mM glucose + 10% FBS, 0.0632 µM"}, "[17]": {"conditions": "RPMI 5 mM glucose + 10% FBS, 0.19 µM"}, "[18]": {"conditions": "RPMI 5 mM glucose + 10% FBS, 0.569 µM"}, "[19]": {"conditions": "RPMI 5 mM glucose + 10% FBS, 1.71 µM"}, "[20]": {"conditions": "RPMI 5 mM glucose + 10% FBS, 5.12 µM"}, "[21]": {"conditions": "RPMI 5 mM glucose + 10% FBS, 15.4 µM"}, "[22]": {"conditions": "RPMI 5 mM glucose + 10% FBS, 46.1 µM"}, "[23]": {"conditions": "RPMI 5 mM glucose + 10% dialyzed FBS, 0.000781 µM"}, "[24]": {"conditions": "RPMI 5 mM glucose + 10% dialyzed FBS, 0.00234 µM"}, "[25]": {"conditions": "RPMI 5 mM glucose + 10% dialyzed FBS, 0.00702 µM"}, "[26]": {"conditions": "RPMI 5 mM glucose + 10% dialyzed FBS, 0.0211 µM"}, "[27]": {"conditions": "RPMI 5 mM glucose + 10% dialyzed FBS, 0.0632 µM"}, "[28]": {"conditions": "RPMI 5 mM glucose + 10% dialyzed FBS, 0.19 µM"}, "[29]": {"conditions": "RPMI 5 mM glucose + 10% dialyzed FBS, 0.569 µM"}, "[30]": {"conditions": "RPMI 5 mM glucose + 10% dialyzed FBS, 1.71 µM"}, "[31]": {"conditions": "RPMI 5 mM glucose + 10% dialyzed FBS, 5.12 µM"}, "[32]": {"conditions": "RPMI 5 mM glucose + 10% dialyzed FBS, 15.4 µM"}, "[33]": {"conditions": "RPMI 5 mM glucose + 10% dialyzed FBS, 46.1 µM"}}}
{"smiles": "N[C@@H](CC(=O)N1CCn2c(nnc2C(F)(F)F)C1)Cc1cc(F)c(F)cc1F", "values": [{"measurement": "cell viability", "setting": "[1]", "result": 119, "unit": "%"}, {"measurement": "cell viability", "setting": "[2]", "result": 98.7, "unit": "%"}, {"measurement": "cell viability", "setting": "[3]", "result": 111, "unit": "%"}, {"measurement": "cell viability", "setting": "[4]", "result": 119, "unit": "%"}, {"measurement": "cell viability", "setting": "[5]", "result": 100, "unit": "%"}, {"measurement": "cell viability", "setting": "[6]", "result": 106, "unit": "%"}, {"measurement": "cell viability", "setting": "[7]", "result": 103, "unit": "%"}, {"measurement": "cell viability", "setting": "[8]", "result": 102, "unit": "%"}, {"measurement": "cell viability", "setting": "[9]", "result": 109, "unit": "%"}, {"measurement": "cell viability", "setting": "[10]", "result": 94.9, "unit": "%"}, {"measurement": "cell viability", "setting": "[11]", "result": 83.5, "unit": "%"}, {"measurement": "cell viability", "setting": "[12]", "result": 83.3, "unit": "%"}, {"measurement": "cell viability", "setting": "[13]", "result": 97.4, "unit": "%"}, {"measurement": "cell viability", "setting": "[14]", "result": 84.6, "unit": "%"}, {"measurement": "cell viability", "setting": "[15]", "result": 86.4, "unit": "%"}, {"measurement": "cell viability", "setting": "[16]", "result": 92.4, "unit": "%"}, {"measurement": "cell viability", "setting": "[17]", "result": 84.8, "unit": "%"}, {"measurement": "cell viability", "setting": "[18]", "result": 86, "unit": "%"}, {"measurement": "cell viability", "setting": "[19]", "result": 83.4, "unit": "%"}, {"measurement": "cell viability", "setting": "[20]", "result": 96.2, "unit": "%"}, {"measurement": "cell viability", "setting": "[21]", "result": 85.1, "unit": "%"}, {"measurement": "cell viability", "setting": "[22]", "result": 82.9, "unit": "%"}, {"measurement": "cell viability", "setting": "[23]", "result": 103, "unit": "%"}, {"measurement": "cell viability", "setting": "[24]", "result": 96.3, "unit": "%"}, {"measurement": "cell viability", "setting": "[25]", "result": 99.5, "unit": "%"}, {"measurement": "cell viability", "setting": "[26]", "result": 95.2, "unit": "%"}, {"measurement": "cell viability", "setting": "[27]", "result": 106, "unit": "%"}, {"measurement": "cell viability", "setting": "[28]", "result": 91.7, "unit": "%"}, {"measurement": "cell viability", "setting": "[29]", "result": 93.4, "unit": "%"}, {"measurement": "cell viability", "setting": "[30]", "result": 100, "unit": "%"}, {"measurement": "cell viability", "setting": "[31]", "result": 96.2, "unit": "%"}, {"measurement": "cell viability", "setting": "[32]", "result": 94.8, "unit": "%"}, {"measurement": "cell viability", "setting": "[33]", "result": 79.5, "unit": "%"}]}
{"smiles": "CC(NCc1ccc2c(c1)[nH]/c(=N\\C(=O)c1ccc(-c3cn[nH]c3)s1)n2CC(C)(C)O)C(C)(C)C", "note": "(stereo unspecified)", "values": [{"measurement": "cell viability", "setting": "[1]", "result": 110, "unit": "%"}, {"measurement": "cell viability", "setting": "[2]", "result": 109, "unit": "%"}, {"measurement": "cell viability", "setting": "[3]", "result": 113, "unit": "%"}, {"measurement": "cell viability", "setting": "[4]", "result": 112, "unit": "%"}, {"measurement": "cell viability", "setting": "[5]", "result": 106, "unit": "%"}, {"measurement": "cell viability", "setting": "[6]", "result": 103, "unit": "%"}, {"measurement": "cell viability", "setting": "[7]", "result": 74.4, "unit": "%"}, {"measurement": "cell viability", "setting": "[8]", "result": 54.1, "unit": "%"}, {"measurement": "cell viability", "setting": "[9]", "result": 9.83, "unit": "%"}, {"measurement": "cell viability", "setting": "[10]", "result": 5.43, "unit": "%"}, {"measurement": "cell viability", "setting": "[11]", "result": 4.17, "unit": "%"}, {"measurement": "cell viability", "setting": "[12]", "result": 110, "unit": "%"}, {"measurement": "cell viability", "setting": "[13]", "result": 104, "unit": "%"}, {"measurement": "cell viability", "setting": "[14]", "result": 109, "unit": "%"}, {"measurement": "cell viability", "setting": "[15]", "result": 98.7, "unit": "%"}, {"measurement": "cell viability", "setting": "[16]", "result": 102, "unit": "%"}, {"measurement": "cell viability", "setting": "[17]", "result": 103, "unit": "%"}, {"measurement": "cell viability", "setting": "[18]", "result": 98.7, "unit": "%"}, {"measurement": "cell viability", "setting": "[19]", "result": 87.2, "unit": "%"}, {"measurement": "cell viability", "setting": "[20]", "result": 10.8, "unit": "%"}, {"measurement": "cell viability", "setting": "[21]", "result": 5.4, "unit": "%"}, {"measurement": "cell viability", "setting": "[22]", "result": 3.08, "unit": "%"}, {"measurement": "cell viability", "setting": "[23]", "result": 116, "unit": "%"}, {"measurement": "cell viability", "setting": "[24]", "result": 100, "unit": "%"}, {"measurement": "cell viability", "setting": "[25]", "result": 110, "unit": "%"}, {"measurement": "cell viability", "setting": "[26]", "result": 99.5, "unit": "%"}, {"measurement": "cell viability", "setting": "[27]", "result": 101, "unit": "%"}, {"measurement": "cell viability", "setting": "[28]", "result": 101, "unit": "%"}, {"measurement": "cell viability", "setting": "[29]", "result": 92.9, "unit": "%"}, {"measurement": "cell viability", "setting": "[30]", "result": 69.7, "unit": "%"}, {"measurement": "cell viability", "setting": "[31]", "result": 8.51, "unit": "%"}, {"measurement": "cell viability", "setting": "[32]", "result": 4.24, "unit": "%"}, {"measurement": "cell viability", "setting": "[33]", "result": 2.97, "unit": "%"}]}
